For 5 cell lines, relative viability results are on record in the supplement of paper PMC10307832.

Assay in all cases: relative viability (nuclei count vs DMSO), 5 days (fraction); higher = more cells survive
Compound in the assay “Pictilisib + Alpelisib”: CS(=O)(=O)N1CCN(Cc2cc3nc(-c4cccc5[nH]ncc45)nc(N4CCOCC4)c3s2)CC1 [Pictilisib] + Cc1nc(NC(=O)N2CCC[C@H]2C(N)=O)sc1-c1ccnc(C(C)(C)C(F)(F)F)c1 [Alpelisib] (partner 2 µM)
In a few lines: (§1)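 Relative viability was taken as the ratio of nuclei in treated wells to nuclei in vehicle wells. Lung cancer cell lines in 1536-well plates received compounds by pin tool one day after seeding, either one drug alone or a fixed anchor-drug dose plus five library-drug doses (not always all listed) in √10 steps. Nuclei were counted on 4× images after 5 days of treatment, and values are medians of duplicate plates.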

Compound in the assay “MK-2206 + Navitoclax”: NC1(c2ccc(-c3nc4ccn5c(=O)[nH]nc5c4cc3-c3ccccc3)cc2)CCC1 [MK-2206] + CC1(C)CCC(c2ccc(Cl)cc2)=C(CN2CCN(c3ccc(C(=O)NS(=O)(=O)c4ccc(N[C@H](CCN5CCOCC5)CSc5ccccc5)c(S(=O)(=O)C(F)(F)F)c4)cc3)CC2)C1 [Navitoclax] (partner 0.5 µM)
In a few lines: as §1

Compound in the assay “MK-2206 + Dasatinib”: NC1(c2ccc(-c3nc4ccn5c(=O)[nH]nc5c4cc3-c3ccccc3)cc2)CCC1 [MK-2206] + Cc1nc(Nc2ncc(C(=O)Nc3c(C)cccc3Cl)s2)cc(N2CCN(CCO)CC2)n1 [Dasatinib] (partner 0.075 µM)
In a few lines:
as §1

Compound in the assay “MK-2206 + Phenformin”: NC1(c2ccc(-c3nc4ccn5c(=O)[nH]nc5c4cc3-c3ccccc3)cc2)CCC1 [MK-2206] + N=C(N)NC(=N)NCCc1ccccc1 [Phenformin] (partner 250 µM)
In a few lines: as §1

Compound in the assay “MK-2206 + Pemetrexed”: NC1(c2ccc(-c3nc4ccn5c(=O)[nH]nc5c4cc3-c3ccccc3)cc2)CCC1 [MK-2206] + Nc1nc2[nH]cc(CCc3ccc(C(=O)N[C@@H](CCC(=O)O)C(=O)O)cc3)c2c(=O)[nH]1 [Pemetrexed] (partner 0.2 µM)
In a few lines: as §1

Regarding COR-L23, the relative viability with Pictilisib + Alpelisib (first compound 0.02 µM) came to 0.821; with Pictilisib + Alpelisib (first compound 0.06325 µM), 0.804; in the assay with Pictilisib + Alpelisib (first compound 0.6325 µM) it was 0.8; with Pictilisib + Alpelisib (first compound 2 µM), 0.572; with MK-2206 + Navitoclax (first compound 0.01 µM), 0.969; with MK-2206 + Navitoclax (first compound 0.03162 µM), 1.14. The relative viability with MK-2206 + Navitoclax (first compound 0.3162 µM) is 1.07; in the assay with MK-2206 + Navitoclax (first compound 1 µM), 0.877; with MK-2206 + Dasatinib (first compound 0.01 µM), 0.452; in the assay with MK-2206 + Dasatinib (first compound 0.03162 µM) it was 0.527; with MK-2206 + Dasatinib (first compound 0.3162 µM) it was 0.494; in the assay with MK-2206 + Dasatinib (first compound 1 µM) it was 0.536. Further, the relative viability in the assay with MK-2206 + Phenformin (first compound 0.01 µM) was 0.417; in the assay with MK-2206 + Phenformin (first compound 0.03162 µM), 0.452; in the assay with MK-2206 + Phenformin (first compound 0.3162 µM) it was 0.422; in the assay with MK-2206 + Phenformin (first compound 1 µM), 0.459; with MK-2206 + Pemetrexed (first compound 0.01 µM), 0.184; with MK-2206 + Pemetrexed (first compound 0.03162 µM), 0.187. Moreover, the values for the relative viability with MK-2206 + Pemetrexed (first compound 0.3162 µM) and with MK-2206 + Pemetrexed (first compound 1 µM) were 0.195 and 0.172, respectively.
As for EMC-BAC-2, the relative viability amounted to 0.754 in the assay with Pictilisib + Alpelisib (first compound 0.02 µM); 0.766 with Pictilisib + Alpelisib (first compound 0.06325 µM); 0.721 with Pictilisib + Alpelisib (first compound 0.6325 µM); 0.577 with Pictilisib + Alpelisib (first compound 2 µM); 1.13 in the assay with MK-2206 + Navitoclax (first compound 0.01 µM); 1.14 with MK-2206 + Navitoclax (first compound 0.03162 µM). In addition, the relative viability with MK-2206 + Navitoclax (first compound 0.3162 µM) turned out to be 1.15; in the assay with MK-2206 + Navitoclax (first compound 1 µM), 1.08; with MK-2206 + Dasatinib (first compound 0.01 µM), 0.266; with MK-2206 + Dasatinib (first compound 0.03162 µM), 0.334; with MK-2206 + Dasatinib (first compound 0.3162 µM) it was 0.335; with MK-2206 + Dasatinib (first compound 1 µM) it was 0.312. In addition, the relative viability with MK-2206 + Phenformin (first compound 0.01 µM) was determined as 0.526; with MK-2206 + Phenformin (first compound 0.03162 µM), 0.546; with MK-2206 + Phenformin (first compound 0.3162 µM), 0.475; with MK-2206 + Phenformin (first compound 1 µM) it was 0.431; in the assay with MK-2206 + Pemetrexed (first compound 0.01 µM), 0.435; with MK-2206 + Pemetrexed (first compound 0.03162 µM), 0.377. The relative viability in the assay with MK-2206 + Pemetrexed (first compound 0.3162 µM) worked out at 0.439; with MK-2206 + Pemetrexed (first compound 1 µM), 0.407.
As to NCI-H1944, the relative viability in the assay with Pictilisib + Alpelisib (first compound 0.02 µM) came out at 0.817; in the assay with Pictilisib + Alpelisib (first compound 0.06325 µM), 0.776; in the assay with Pictilisib + Alpelisib (first compound 0.6325 µM), 0.732; with Pictilisib + Alpelisib (first compound 2 µM), 0.472; with MK-2206 + Navitoclax (first compound 0.01 µM), 1.07; in the assay with MK-2206 + Navitoclax (first compound 0.03162 µM), 1.03. Besides, the relative viability with MK-2206 + Navitoclax (first compound 0.3162 µM) came out at 1.02; in the assay with MK-2206 + Navitoclax (first compound 1 µM), 0.992; with MK-2206 + Dasatinib (first compound 0.01 µM), 0.243; in the assay with MK-2206 + Dasatinib (first compound 0.03162 µM), 0.227; in the assay with MK-2206 + Dasatinib (first compound 0.3162 µM), 0.198; with MK-2206 + Dasatinib (first compound 1 µM) it was 0.182. In addition, the relative viability was determined as 0.197 in the assay with MK-2206 + Phenformin (first compound 0.01 µM); 0.217 with MK-2206 + Phenformin (first compound 0.03162 µM); 0.169 with MK-2206 + Phenformin (first compound 0.3162 µM); 0.185 with MK-2206 + Phenformin (first compound 1 µM); 0.612 in the assay with MK-2206 + Pemetrexed (first compound 0.01 µM); 0.575 in the assay with MK-2206 + Pemetrexed (first compound 0.03162 µM). Also, the relative viability worked out at 0.603 with MK-2206 + Pemetrexed (first compound 0.3162 µM) and 0.576 in the assay with MK-2206 + Pemetrexed (first compound 1 µM).
Turning to A-427, the relative viability with Pictilisib + Alpelisib (first compound 0.02 µM) worked out at 1.13; in the assay with Pictilisib + Alpelisib (first compound 0.06325 µM), 1.09; in the assay with Pictilisib + Alpelisib (first compound 0.6325 µM), 1.06; in the assay with Pictilisib + Alpelisib (first compound 2 µM), 1.04; in the assay with MK-2206 + Navitoclax (first compound 0.01 µM) it was 0.937; with MK-2206 + Navitoclax (first compound 0.03162 µM) it was 0.877. Besides, the relative viability in the assay with MK-2206 + Navitoclax (first compound 0.3162 µM) was found to be 0.849; with MK-2206 + Navitoclax (first compound 1 µM), 0.902; with MK-2206 + Dasatinib (first compound 0.01 µM), 0.698; with MK-2206 + Dasatinib (first compound 0.03162 µM) it was 0.735; in the assay with MK-2206 + Dasatinib (first compound 0.3162 µM), 0.698; in the assay with MK-2206 + Dasatinib (first compound 1 µM), 0.596. The relative viability with MK-2206 + Phenformin (first compound 0.01 µM) was determined as 0.325; in the assay with MK-2206 + Phenformin (first compound 0.03162 µM), 0.297; with MK-2206 + Phenformin (first compound 0.3162 µM), 0.219; in the assay with MK-2206 + Phenformin (first compound 1 µM), 0.25; with MK-2206 + Pemetrexed (first compound 0.01 µM), 1.03; with MK-2206 + Pemetrexed (first compound 0.03162 µM) it was 0.925. Moreover, the values for the relative viability with MK-2206 + Pemetrexed (first compound 0.3162 µM) and in the assay with MK-2206 + Pemetrexed (first compound 1 µM) were 1.07 and 1.05, respectively.
On to NCI-H520, for which the relative viability with Pictilisib + Alpelisib (first compound 0.02 µM) was 0.996; with Pictilisib + Alpelisib (first compound 0.06325 µM), 0.815; in the assay with Pictilisib + Alpelisib (first compound 0.6325 µM), 0.724; in the assay with Pictilisib + Alpelisib (first compound 2 µM), 0.267; with MK-2206 + Navitoclax (first compound 0.01 µM), 1.11; in the assay with MK-2206 + Navitoclax (first compound 0.03162 µM) it was 1.09. Also, the relative viability in the assay with MK-2206 + Navitoclax (first compound 0.3162 µM) turned out to be 0.701; in the assay with MK-2206 + Navitoclax (first compound 1 µM), 0.489; with MK-2206 + Dasatinib (first compound 0.01 µM), 0.179; with MK-2206 + Dasatinib (first compound 0.03162 µM) it was 0.178; in the assay with MK-2206 + Dasatinib (first compound 0.3162 µM), 0.189; in the assay with MK-2206 + Dasatinib (first compound 1 µM), 0.18. In addition, the relative viability with MK-2206 + Phenformin (first compound 0.01 µM) is 0.551; with MK-2206 + Phenformin (first compound 0.03162 µM), 0.523; in the assay with MK-2206 + Phenformin (first compound 0.3162 µM) it was 0.212; with MK-2206 + Phenformin (first compound 1 µM), 0.254; with MK-2206 + Pemetrexed (first compound 0.01 µM) it was 0.612; with MK-2206 + Pemetrexed (first compound 0.03162 µM) it was 0.68. Besides, the values for the relative viability with MK-2206 + Pemetrexed (first compound 0.3162 µM) and with MK-2206 + Pemetrexed (first compound 1 µM) were 0.351 and 0.183, respectively.
